Measurements published in the NIST ThermoML archive (doi:10.1016/j.jct.2015.11.012).
Numbers after ± are expanded uncertainties.

Tests used:
[1] = 100 kPa, Liquid; for viscosity: Capillary tube (Ostwald / Ubbelohde) method; for speed of sound: Frequency=2 MHz, Linear variable-path acoustic interferometer; for mass density: Vibrating tube method
[2] = xn = mol fraction of the nth substance listed; conditions: 100 kPa, Liquid; for viscosity: Capillary tube (Ostwald / Ubbelohde) method; for speed of sound: Frequency=2 MHz, Linear variable-path acoustic interferometer; for mass density: Vibrating tube method

Row | Structure (SMILES) | viscosity ([1]; 303.15 K) | speed of sound ([1]; 303.15 K) | mass density ([1]; 303.15 K) | viscosity ([1]; 308.15 K) | speed of sound ([1]; 308.15 K) | mass density ([1]; 308.15 K) | viscosity ([1]; 313.15 K) | speed of sound ([1]; 313.15 K) | mass density ([1]; 313.15 K) | viscosity ([1]; 318.15 K) | speed of sound ([1]; 318.15 K) | mass density ([1]; 318.15 K) | also measured
1 | Nc1cccc(Cl)c1 [3-chlorobenzenamine] | 4.255 ± 1 mPa·s | 1517.5 ± 9.3 m/s | 1205.32 ± 4 kg/m3 | 3.842 ± 1 mPa·s | 1501.2 ± 9.2 m/s | 1200.75 ± 4 kg/m3 | 3.43 ± 1 mPa·s | 1480.3 ± 9 m/s | 1196.02 ± 4 kg/m3 | 3.022 ± 1 mPa·s | 1464.8 ± 8.9 m/s | 1191.25 ± 4 kg/m3 | 
2 | Nc1cccc(Cl)c1 [3-chlorobenzenamine] + OCCCl |  |  |  |  |  |  |  |  |  |  |  |  | viscosity ([2]; 303.15 K, x1 = 1): 4.255 ± 1 mPa·s; speed of sound ([2]; 303.15 K, x1 = 1): 1517.5 ± 9.3 m/s; mass density ([2]; 303.15 K, x1 = 1): 1205.32 ± 4 kg/m3; viscosity ([2]; 308.15 K, x1 = 1): 3.842 ± 1 mPa·s; speed of sound ([2]; 308.15 K, x1 = 1): 1501.2 ± 9.2 m/s; mass density ([2]; 308.15 K, x1 = 1): 1200.75 ± 4 kg/m3; viscosity ([2]; 313.15 K, x1 = 1): 3.43 ± 1 mPa·s; speed of sound ([2]; 313.15 K, x1 = 1): 1480.3 ± 9 m/s; mass density ([2]; 313.15 K, x1 = 1): 1196.02 ± 4 kg/m3; viscosity ([2]; 318.15 K, x1 = 1): 3.022 ± 1 mPa·s; speed of sound ([2]; 318.15 K, x1 = 1): 1464.8 ± 8.9 m/s; mass density ([2]; 318.15 K, x1 = 1): 1191.25 ± 4 kg/m3
3 | OCCc1ccccc1 [2-phenylethanol] | 9.045 ± 1 mPa·s | 1508.4 ± 9.2 m/s | 1012.34 ± 4 kg/m3 | 7.193 ± 1 mPa·s | 1490.8 ± 9.1 m/s | 1008.63 ± 4 kg/m3 | 6.085 ± 1 mPa·s | 1470.6 ± 9 m/s | 1004.84 ± 4 kg/m3 | 4.984 ± 1 mPa·s | 1456.4 ± 8.9 m/s | 1000.94 ± 4 kg/m3 | 
4 | NCCO [2-aminoethan-1-ol] + Nc1cccc(Cl)c1 |  |  |  |  |  |  |  |  |  |  |  |  | viscosity ([2]; 303.15 K, x2 = 0): 14.42 ± 1 mPa·s; speed of sound ([2]; 303.15 K, x2 = 0): 1703.1 ± 10 m/s; mass density ([2]; 303.15 K, x2 = 0): 1008.72 ± 4 kg/m3; viscosity ([2]; 308.15 K, x2 = 0): 11.71 ± 1 mPa·s; speed of sound ([2]; 308.15 K, x2 = 0): 1685.8 ± 10 m/s; mass density ([2]; 308.15 K, x2 = 0): 1004.65 ± 4 kg/m3; viscosity ([2]; 313.15 K, x2 = 0): 9.564 ± 1 mPa·s; speed of sound ([2]; 313.15 K, x2 = 0): 1671.2 ± 10 m/s; mass density ([2]; 313.15 K, x2 = 0): 1000.74 ± 4 kg/m3; viscosity ([2]; 318.15 K, x2 = 0): 7.558 ± 1 mPa·s; speed of sound ([2]; 318.15 K, x2 = 0): 1653.2 ± 10 m/s; mass density ([2]; 318.15 K, x2 = 0): 996.04 ± 4 kg/m3
5 | NCCO [2-aminoethan-1-ol] | 14.42 ± 1 mPa·s | 1703.1 ± 10 m/s | 1008.72 ± 4 kg/m3 | 11.71 ± 1 mPa·s | 1685.8 ± 10 m/s | 1004.65 ± 4 kg/m3 | 9.564 ± 1 mPa·s | 1671.2 ± 10 m/s | 1000.74 ± 4 kg/m3 | 7.558 ± 1 mPa·s | 1653.2 ± 10 m/s | 996.04 ± 4 kg/m3 | 
6 | OCCc1ccccc1 [2-phenylethanol] + Nc1cccc(Cl)c1 |  |  |  |  |  |  |  |  |  |  |  |  | viscosity ([2]; 303.15 K, x2 = 0): 9.045 ± 1 mPa·s; speed of sound ([2]; 303.15 K, x2 = 0): 1508.4 ± 9.2 m/s; mass density ([2]; 303.15 K, x2 = 0): 1012.34 ± 4 kg/m3; viscosity ([2]; 308.15 K, x2 = 0): 7.193 ± 1 mPa·s; speed of sound ([2]; 308.15 K, x2 = 0): 1490.8 ± 9.1 m/s; mass density ([2]; 308.15 K, x2 = 0): 1008.63 ± 4 kg/m3; viscosity ([2]; 313.15 K, x2 = 0): 6.085 ± 1 mPa·s; speed of sound ([2]; 313.15 K, x2 = 0): 1470.6 ± 9 m/s; mass density ([2]; 313.15 K, x2 = 0): 1004.84 ± 4 kg/m3; viscosity ([2]; 318.15 K, x2 = 0): 4.984 ± 1 mPa·s; speed of sound ([2]; 318.15 K, x2 = 0): 1456.4 ± 8.9 m/s; mass density ([2]; 318.15 K, x2 = 0): 1000.94 ± 4 kg/m3
7 | OCCCl [1-chloro-2-hydroxyethane] | 2.578 ± 1 mPa·s | 1342.8 ± 8.2 m/s | 1192.12 ± 4 kg/m3 | 2.259 ± 1 mPa·s | 1328.5 ± 8.1 m/s | 1186.63 ± 4 kg/m3 | 1.852 mPa·s | 1315.5 ± 8 m/s | 1178.05 ± 4 kg/m3 | 1.564 mPa·s | 1301.2 ± 7.9 m/s | 1170.87 ± 4 kg/m3 | 
